Assay results reported in ChEMBL document CHEMBL4406920, “Tetrazole as a Replacement of the Electrophilic Group in Characteristic Prolyl Oligopeptidase Inhibitors” (ACS Med Chem Lett, 2019).

Target: Prolyl endopeptidase (Sus scrofa, UniProt P23687)
Experiment: Inhibition of recombinant porcine brain PREP expressed in Escherichia coli assessed as formation of 7-amido-4-methylcoumarin using Suc-Gly-Pro-amido-4-methylcoumarin as substrate preincubated for 30 mins followed by substrate addition measured after 60 mins by fluorometric assay

Sequence of Prolyl endopeptidase (Sus scrofa, UniProt P23687) (P23687 whole entry): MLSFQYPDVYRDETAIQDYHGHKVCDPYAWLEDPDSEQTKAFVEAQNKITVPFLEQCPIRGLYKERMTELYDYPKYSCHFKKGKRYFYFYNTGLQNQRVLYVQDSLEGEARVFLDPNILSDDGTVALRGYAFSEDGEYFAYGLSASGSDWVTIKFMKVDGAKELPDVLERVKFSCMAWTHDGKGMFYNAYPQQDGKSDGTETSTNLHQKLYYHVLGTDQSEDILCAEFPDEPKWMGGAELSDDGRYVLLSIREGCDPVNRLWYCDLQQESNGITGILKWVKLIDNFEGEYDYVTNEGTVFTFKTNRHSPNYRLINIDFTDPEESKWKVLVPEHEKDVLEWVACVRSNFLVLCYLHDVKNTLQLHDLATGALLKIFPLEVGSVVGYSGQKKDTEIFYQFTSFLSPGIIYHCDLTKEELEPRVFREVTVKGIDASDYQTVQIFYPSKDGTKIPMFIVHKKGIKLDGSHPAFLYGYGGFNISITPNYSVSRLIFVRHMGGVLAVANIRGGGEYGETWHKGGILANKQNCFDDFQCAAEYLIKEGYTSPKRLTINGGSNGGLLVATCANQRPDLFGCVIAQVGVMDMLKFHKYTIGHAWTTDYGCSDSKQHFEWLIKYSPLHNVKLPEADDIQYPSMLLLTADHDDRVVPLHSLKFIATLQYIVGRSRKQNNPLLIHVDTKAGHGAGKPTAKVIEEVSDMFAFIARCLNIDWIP

| Compound | IC50 [µM] |
| --- | --- |
| CN(CC(=O)N1CCC[C@H]1c1nnn[nH]1)C(=O)CCCc1ccccc1 | 10.6 |
| N#C[C@@H]1CCCN1C(=O)CNC(=O)CCCc1ccccc1 | 0.22 |
| O=C(CCCc1ccccc1)N1CCC[C@H]1C(=O)N1CCC[C@H]1c1nnn[nH]1 | 0.012 |
| O=C(O)[C@@H]1CCCN1C(=O)[C@@H]1CCCN1C(=O)CCCc1ccccc1 | 3.63 |
| CN(CC(=O)N1CCC[C@H]1C#N)C(=O)CCCc1ccccc1 | 0.269 |
| C[C@H](NC(=O)CCCc1ccccc1)C(=O)N1CCC[C@H]1C(=O)O | 17.5 |
| C[C@H](NC(=O)CCCc1ccccc1)C(=O)N1CCC[C@H]1C#N | 0.00406 |
| NC(=O)[C@@H]1CCCN1C(=O)[C@@H]1CCCN1C(=O)CCCc1ccccc1 | 4.37 |
| C[C@@H](C(=O)N1CCC[C@H]1C#N)N(C)C(=O)CCCc1ccccc1 | 0.0054 |
| C[C@@H](C(=O)N1CCC[C@H]1c1nnn[nH]1)N(C)C(=O)CCCc1ccccc1 | 27.2 |
| C[C@H](NC(=O)CCCc1ccccc1)C(=O)N1CCCC1 | 0.147 |
| O=C(CCCc1ccccc1)NCC(=O)N1CCC[C@H]1c1nnn[nH]1 | 205 |

Target: Prolyl endopeptidase (Mus musculus, UniProt Q9QUR6)
Sequence (Q9QUR6 whole entry): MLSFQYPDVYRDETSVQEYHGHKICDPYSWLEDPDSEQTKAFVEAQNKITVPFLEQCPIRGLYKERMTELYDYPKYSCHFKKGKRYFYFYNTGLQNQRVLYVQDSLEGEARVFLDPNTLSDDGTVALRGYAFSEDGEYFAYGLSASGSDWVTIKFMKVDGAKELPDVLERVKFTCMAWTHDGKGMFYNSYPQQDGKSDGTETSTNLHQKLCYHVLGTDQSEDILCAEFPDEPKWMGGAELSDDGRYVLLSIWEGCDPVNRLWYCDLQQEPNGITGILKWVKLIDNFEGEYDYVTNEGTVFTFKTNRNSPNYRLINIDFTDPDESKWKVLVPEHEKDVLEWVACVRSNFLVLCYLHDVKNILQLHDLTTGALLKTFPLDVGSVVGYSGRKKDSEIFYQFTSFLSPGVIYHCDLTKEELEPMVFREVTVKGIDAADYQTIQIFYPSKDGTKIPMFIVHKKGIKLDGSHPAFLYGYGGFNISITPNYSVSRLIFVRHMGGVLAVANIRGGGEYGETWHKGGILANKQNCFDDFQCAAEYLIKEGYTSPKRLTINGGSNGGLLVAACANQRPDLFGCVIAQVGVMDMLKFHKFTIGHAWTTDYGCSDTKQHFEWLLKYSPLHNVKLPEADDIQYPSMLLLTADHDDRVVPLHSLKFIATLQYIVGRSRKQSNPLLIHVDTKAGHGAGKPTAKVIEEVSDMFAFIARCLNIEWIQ
Experiment: Inhibition of PREP in C57BL/6 mouse cortex homogenate assessed as formation of 7-amido-4-methylcoumarin using Suc-Gly-Pro-amido-4-methylcoumarin as substrate preincubated for 30 mins followed by substrate addition measured after 60 mins by fluorometric assay

| Compound | IC50 [µM] |
| --- | --- |
| N#C[C@@H]1CCCN1C(=O)CNC(=O)CCCc1ccccc1 | 0.264 |
| O=C(CCCc1ccccc1)NCCC(=O)N1CCCC1 | 12.1 |
| C[C@@H](C(=O)N1CCC[C@H]1C(N)=O)N(C)C(=O)CCCc1ccccc1 | 28.8 |
| CN(CC(=O)N1CCC[C@H]1C(N)=O)C(=O)CCCc1ccccc1 | 457 |
| CN(CC(=O)N1CCCC1)C(=O)CCCc1ccccc1 | 5.14 |
| C[C@H](NC(=O)CCCc1ccccc1)C(=O)N1CCC[C@H]1C#N | 0.00328 |
| C[C@@H](NC(=O)CCCc1ccccc1)C(=O)N1CCCC1 | 35.2 |
| CC(C)(NC(=O)CCCc1ccccc1)C(=O)N1CCCC1 | 13.5 |
| C[C@@H](C(=O)N1CCCC1)N(C)C(=O)CCCc1ccccc1 | 0.298 |
| C[C@H](NC(=O)CCCc1ccccc1)C(=O)N1CCC[C@H]1c1nnn[nH]1 | 0.091 |
| NC(=O)[C@@H]1CCCN1C(=O)CNC(=O)CCCc1ccccc1 | 154 |
| C[C@H](NC(=O)CCCc1ccccc1)C(=O)N1CCC[C@H]1C(N)=O | 6.21 |
